Measured values as given in paper doi:10.1101/2021.04.08.439011v1 (biorxiv, 2021).
Read-outs that look alike come from different tables or passages of the source.

How the values were obtained:
MST3 = MST3 (Homo sapiens, UniProt Q9Y6E0); conditions: 1 µM; binder
RPS6KA2 = RPS6KA2 (Homo sapiens, UniProt Q15349); conditions: binder
ALK(L1196M) = ALK(L1196M) (Homo sapiens, UniProt Q9UM73, L1196M); conditions: 1 µM; binder
HIPK4 = HIPK4 (Homo sapiens, UniProt Q8NE63); conditions: 1 µM; binder
PIK3C2B = PIK3C2B (Homo sapiens, UniProt O00750); conditions: 1 µM; binder
CDK9 = CDK9 (Homo sapiens, UniProt P50750); conditions: 1 µM; binder
CHEK2 = CHEK2 (Homo sapiens, UniProt O96017); conditions: 1 µM; binder
HIPK2 = HIPK2 (Homo sapiens, UniProt Q9H2X6); conditions: 1 µM; binder
PLK3 = PLK3 (Homo sapiens, UniProt Q9H4B4); conditions: 1 µM; binder
PRP4 = PRP4 (Homo sapiens, UniProt Q13523); conditions: 1 µM; binder
CDK3 = CDK3 (Homo sapiens, UniProt Q00526); conditions: 1 µM; binder
SBK1 = SBK1 (Homo sapiens, UniProt Q52WX2); conditions: 1 µM; binder
DYRK2 = DYRK2 (Homo sapiens, UniProt Q92630); conditions: 1 µM; binder
ERBB3 = ERBB3 (Homo sapiens, UniProt P21860); conditions: 1 µM; binder
CDK2 = CDK2 (Homo sapiens, UniProt P24941); conditions: 1 µM; binder
EIF2AK1 = EIF2AK1 (Homo sapiens, UniProt Q9BQI3); conditions: 1 µM; binder
MET = MET (Homo sapiens, UniProt P08581); conditions: 1 µM; binder
AURKA = AURKA (Homo sapiens, UniProt O14965); conditions: 1 µM; binder
SRPK3 = SRPK3 (Homo sapiens, UniProt Q9UPE1); conditions: 1 µM; binder
RPS6KA4 = RPS6KA4 (Homo sapiens, UniProt O75676); conditions: Kin.Dom.1 N-terminal; binder
GSK3B = GSK3B (Homo sapiens, UniProt P49841); conditions: 1 µM; binder
YSK4 = YSK4 (Homo sapiens, UniProt Q56UN5); conditions: 1 µM; binder
DLK = DLK (Homo sapiens, UniProt Q12852); conditions: 1 µM; binder
PAK4 = PAK4 (Homo sapiens, UniProt O96013); conditions: 1 µM; binder
PKAC-alpha = PKAC-alpha (Homo sapiens, UniProt P17612); conditions: 1 µM; binder
CIT = CIT (Homo sapiens, UniProt O14578); conditions: 1 µM; binder
RPS6KA6 = RPS6KA6 (Homo sapiens, UniProt Q9UK32); conditions: binder
PAK2 = PAK2 (Homo sapiens, UniProt Q13177); conditions: 1 µM; binder
FGFR2 = FGFR2 (Homo sapiens, UniProt P21802); conditions: 1 µM; binder
TBK1 = TBK1 (Homo sapiens, UniProt Q9UHD2); conditions: 1 µM; binder

Sequence of RPS6KA6 (Q9UK32 whole entry): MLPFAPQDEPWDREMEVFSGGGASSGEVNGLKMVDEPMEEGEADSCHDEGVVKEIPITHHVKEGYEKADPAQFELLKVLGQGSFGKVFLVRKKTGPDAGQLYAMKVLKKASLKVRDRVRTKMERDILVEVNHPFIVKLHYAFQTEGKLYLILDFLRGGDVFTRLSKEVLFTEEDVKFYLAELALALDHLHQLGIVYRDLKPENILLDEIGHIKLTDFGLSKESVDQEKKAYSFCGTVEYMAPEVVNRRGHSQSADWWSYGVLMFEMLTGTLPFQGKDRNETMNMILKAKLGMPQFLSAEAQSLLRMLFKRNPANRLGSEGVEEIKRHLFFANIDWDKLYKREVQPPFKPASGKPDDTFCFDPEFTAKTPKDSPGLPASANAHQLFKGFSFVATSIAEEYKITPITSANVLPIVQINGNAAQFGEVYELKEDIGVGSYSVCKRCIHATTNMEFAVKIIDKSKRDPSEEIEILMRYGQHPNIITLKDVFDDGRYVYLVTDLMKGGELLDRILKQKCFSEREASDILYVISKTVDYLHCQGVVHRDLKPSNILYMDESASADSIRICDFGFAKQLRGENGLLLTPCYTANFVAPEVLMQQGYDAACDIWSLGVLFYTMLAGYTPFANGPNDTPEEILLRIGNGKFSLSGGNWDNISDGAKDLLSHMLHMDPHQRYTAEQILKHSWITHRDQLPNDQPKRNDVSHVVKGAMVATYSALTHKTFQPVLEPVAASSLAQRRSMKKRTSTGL
Sequence of RPS6KA2 (Q15349 whole entry): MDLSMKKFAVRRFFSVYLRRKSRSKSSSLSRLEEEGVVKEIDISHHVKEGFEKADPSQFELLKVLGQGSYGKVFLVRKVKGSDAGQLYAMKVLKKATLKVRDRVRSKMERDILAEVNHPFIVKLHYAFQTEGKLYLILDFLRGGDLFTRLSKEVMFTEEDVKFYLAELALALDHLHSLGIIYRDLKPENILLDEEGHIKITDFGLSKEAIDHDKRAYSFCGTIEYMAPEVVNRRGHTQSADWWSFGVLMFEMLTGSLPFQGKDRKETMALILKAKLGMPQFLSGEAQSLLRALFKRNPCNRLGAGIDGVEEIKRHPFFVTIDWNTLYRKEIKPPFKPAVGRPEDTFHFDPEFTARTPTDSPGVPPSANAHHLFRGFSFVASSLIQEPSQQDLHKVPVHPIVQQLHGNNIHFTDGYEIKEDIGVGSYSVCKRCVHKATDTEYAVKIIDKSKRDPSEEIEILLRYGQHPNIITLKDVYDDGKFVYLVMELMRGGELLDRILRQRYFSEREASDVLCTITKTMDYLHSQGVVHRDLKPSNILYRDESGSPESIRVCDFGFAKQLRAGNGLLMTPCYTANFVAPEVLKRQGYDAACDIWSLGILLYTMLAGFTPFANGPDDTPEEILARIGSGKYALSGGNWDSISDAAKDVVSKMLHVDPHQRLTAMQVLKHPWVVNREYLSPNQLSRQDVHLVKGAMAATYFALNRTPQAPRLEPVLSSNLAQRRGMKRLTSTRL
Sequence of RPS6KA4 (O75676 whole entry): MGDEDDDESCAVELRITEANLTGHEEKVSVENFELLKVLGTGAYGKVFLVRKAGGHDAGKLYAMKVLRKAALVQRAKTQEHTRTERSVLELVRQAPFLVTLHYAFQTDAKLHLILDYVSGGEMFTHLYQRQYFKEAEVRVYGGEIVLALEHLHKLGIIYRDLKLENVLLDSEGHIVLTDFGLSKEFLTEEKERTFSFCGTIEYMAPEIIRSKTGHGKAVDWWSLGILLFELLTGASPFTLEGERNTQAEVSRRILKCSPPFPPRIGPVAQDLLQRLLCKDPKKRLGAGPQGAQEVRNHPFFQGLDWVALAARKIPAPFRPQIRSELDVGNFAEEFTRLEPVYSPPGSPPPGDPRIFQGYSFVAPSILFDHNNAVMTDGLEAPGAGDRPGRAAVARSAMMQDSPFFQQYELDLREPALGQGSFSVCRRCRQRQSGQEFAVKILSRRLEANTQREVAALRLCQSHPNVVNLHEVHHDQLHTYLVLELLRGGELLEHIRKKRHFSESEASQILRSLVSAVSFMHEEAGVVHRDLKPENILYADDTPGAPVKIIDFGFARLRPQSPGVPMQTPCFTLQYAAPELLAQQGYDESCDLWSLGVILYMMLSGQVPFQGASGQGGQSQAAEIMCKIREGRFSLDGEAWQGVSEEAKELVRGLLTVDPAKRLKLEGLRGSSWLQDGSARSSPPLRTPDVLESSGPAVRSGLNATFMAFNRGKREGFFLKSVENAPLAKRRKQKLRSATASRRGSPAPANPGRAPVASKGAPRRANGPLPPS
Sequence of PLK3 (Q9H4B4 whole entry): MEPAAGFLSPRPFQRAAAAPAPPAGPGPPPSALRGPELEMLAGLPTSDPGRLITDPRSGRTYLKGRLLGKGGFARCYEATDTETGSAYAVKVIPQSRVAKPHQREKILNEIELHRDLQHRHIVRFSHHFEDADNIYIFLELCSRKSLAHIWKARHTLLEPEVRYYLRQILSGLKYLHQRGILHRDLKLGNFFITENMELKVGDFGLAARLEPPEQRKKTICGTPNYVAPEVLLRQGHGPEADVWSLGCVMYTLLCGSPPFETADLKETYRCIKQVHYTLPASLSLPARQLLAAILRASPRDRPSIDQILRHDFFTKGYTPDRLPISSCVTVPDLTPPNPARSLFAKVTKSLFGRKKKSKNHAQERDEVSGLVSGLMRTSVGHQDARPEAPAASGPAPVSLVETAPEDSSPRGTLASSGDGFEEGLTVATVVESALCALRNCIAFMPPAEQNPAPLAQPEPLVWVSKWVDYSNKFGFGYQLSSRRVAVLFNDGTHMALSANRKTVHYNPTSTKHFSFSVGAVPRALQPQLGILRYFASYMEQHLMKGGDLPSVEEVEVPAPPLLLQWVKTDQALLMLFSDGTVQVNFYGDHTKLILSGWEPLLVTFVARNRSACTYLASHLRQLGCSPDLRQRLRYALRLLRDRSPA
Sequence of FGFR2 (P21802 whole entry): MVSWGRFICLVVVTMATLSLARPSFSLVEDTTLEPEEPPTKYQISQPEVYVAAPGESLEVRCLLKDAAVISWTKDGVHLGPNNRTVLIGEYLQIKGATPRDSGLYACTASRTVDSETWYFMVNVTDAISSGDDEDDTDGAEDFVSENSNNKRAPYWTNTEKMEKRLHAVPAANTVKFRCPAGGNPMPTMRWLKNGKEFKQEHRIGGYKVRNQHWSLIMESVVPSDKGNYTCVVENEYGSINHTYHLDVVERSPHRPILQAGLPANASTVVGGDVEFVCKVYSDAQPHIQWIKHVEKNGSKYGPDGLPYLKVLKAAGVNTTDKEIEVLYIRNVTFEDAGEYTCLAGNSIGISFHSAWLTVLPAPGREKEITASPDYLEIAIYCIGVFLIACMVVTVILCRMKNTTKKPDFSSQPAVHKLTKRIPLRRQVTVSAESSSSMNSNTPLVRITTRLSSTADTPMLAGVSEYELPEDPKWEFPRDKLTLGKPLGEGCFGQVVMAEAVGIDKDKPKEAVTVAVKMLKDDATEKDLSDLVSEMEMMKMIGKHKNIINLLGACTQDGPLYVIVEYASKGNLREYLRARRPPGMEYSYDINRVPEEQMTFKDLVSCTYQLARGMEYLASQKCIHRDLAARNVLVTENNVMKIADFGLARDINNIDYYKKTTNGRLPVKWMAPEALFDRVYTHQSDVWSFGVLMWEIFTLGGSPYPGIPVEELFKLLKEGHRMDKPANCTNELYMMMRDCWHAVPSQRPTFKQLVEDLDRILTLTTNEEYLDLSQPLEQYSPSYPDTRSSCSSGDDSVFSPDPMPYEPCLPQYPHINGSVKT
Sequence of CDK9 (P50750 whole entry): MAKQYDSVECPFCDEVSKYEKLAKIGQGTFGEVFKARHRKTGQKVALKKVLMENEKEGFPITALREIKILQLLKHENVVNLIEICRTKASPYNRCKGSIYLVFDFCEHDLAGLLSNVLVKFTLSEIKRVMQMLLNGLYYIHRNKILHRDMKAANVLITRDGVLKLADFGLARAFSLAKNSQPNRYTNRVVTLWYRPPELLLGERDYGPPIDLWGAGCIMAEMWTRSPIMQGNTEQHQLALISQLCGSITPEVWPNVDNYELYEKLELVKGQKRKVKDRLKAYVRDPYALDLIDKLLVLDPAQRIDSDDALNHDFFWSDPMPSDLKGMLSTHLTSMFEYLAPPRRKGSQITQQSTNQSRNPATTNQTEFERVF
Sequence of PAK4 (O96013 whole entry): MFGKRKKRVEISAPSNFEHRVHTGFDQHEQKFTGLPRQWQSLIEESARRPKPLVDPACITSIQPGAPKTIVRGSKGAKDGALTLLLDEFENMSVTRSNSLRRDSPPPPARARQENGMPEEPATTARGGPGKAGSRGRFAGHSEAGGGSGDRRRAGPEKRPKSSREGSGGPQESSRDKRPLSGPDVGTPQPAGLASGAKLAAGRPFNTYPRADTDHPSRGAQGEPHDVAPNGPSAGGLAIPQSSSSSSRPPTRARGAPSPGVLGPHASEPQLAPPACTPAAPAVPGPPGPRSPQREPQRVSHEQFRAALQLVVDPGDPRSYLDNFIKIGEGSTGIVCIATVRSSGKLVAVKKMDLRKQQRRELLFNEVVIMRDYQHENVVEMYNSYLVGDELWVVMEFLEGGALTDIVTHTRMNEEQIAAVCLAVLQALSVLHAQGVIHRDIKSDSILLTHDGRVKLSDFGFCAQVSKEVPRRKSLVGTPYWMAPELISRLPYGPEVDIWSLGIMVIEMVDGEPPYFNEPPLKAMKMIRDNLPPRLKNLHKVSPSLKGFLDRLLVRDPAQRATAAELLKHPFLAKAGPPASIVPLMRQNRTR
Sequence of CDK3 (Q00526 whole entry): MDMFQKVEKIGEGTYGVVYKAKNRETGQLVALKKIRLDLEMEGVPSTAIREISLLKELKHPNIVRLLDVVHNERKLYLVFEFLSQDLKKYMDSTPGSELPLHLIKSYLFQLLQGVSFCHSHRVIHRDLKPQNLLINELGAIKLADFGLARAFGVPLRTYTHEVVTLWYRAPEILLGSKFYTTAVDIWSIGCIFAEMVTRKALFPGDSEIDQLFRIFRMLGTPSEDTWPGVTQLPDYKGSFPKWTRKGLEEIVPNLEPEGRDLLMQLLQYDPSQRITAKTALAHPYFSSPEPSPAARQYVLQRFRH

CNc1ncc2cc(-c3ccc(-c4cccc(C)n4)cc3Cl)c(=O)n(C[C@H]3OC[C@H](N)CO3)c2n1 [compound 6, G-5555]
Percent Control (MST3): 1.7% | Percent Control (RPS6KA2; Kin.Dom.1 N-terminal): 57% | Percent Control (RPS6KA2; Kin.Dom.2 C-terminal, 1 µM): 92% | Percent Control (ALK(L1196M)): 100% | Percent Control (HIPK4): 100% | Percent Control (PIK3C2B): 100% | Percent Control (CDK9): 100% | Percent Control (CHEK2): 100% | Percent Control (HIPK2): 100% | Percent Control (PLK3): 93% | Percent Control (PRP4): 95% | Percent Control (CDK3): 100% | Percent Control (SBK1): 100% | Percent Control (DYRK2): 100% | Percent Control (ERBB3): 86% | Percent Control (CDK2): 100% | Percent Control (EIF2AK1): 100% | Percent Control (MET): 40% | Percent Control (AURKA): 43% | Percent Control (SRPK3): 100% | Percent Control (RPS6KA4): 100% | Percent Control (GSK3B): 100% | Percent Control (YSK4): 19% | Percent Control (DLK): 100% | Percent Control (PAK4): 77% | Percent Control (PKAC-alpha): 100% | Percent Control (CIT): 100% | Percent Control (RPS6KA6; Kin.Dom.1 N-terminal): 95% | Percent Control (RPS6KA6; Kin.Dom.2 C-terminal, 1 µM): 92% | Percent Control (PAK2): 0% | Percent Control (FGFR2): 100% | Percent Control (TBK1): 68%
